Source: US11364218B2, “Method of treating or preventing mood disorders, mental disorders, and/or chronic fatigue syndrome” (priority 2016, dated 2022)

Tests used:
mouse = experiment: forced swimming test in mouse (antidepressant action); type: in vivo; conditions: for Immobile time average value / non-moving time: male ICR mice; for Immobile time average value: single forced oral dose 1 h before test (methocarbamol 200 mg/kg; etizolam 0.033 mg/kg), non-moving time in last 7 of 10 min, n=10; for non-moving time: single oral dose 1 h before test (methocarbamol 200 mg/kg; etizolam 0.033 mg/kg), last 7 of 10 min, medium control 230.8 seconds
Text: The antidepressant action of a test substance may be evaluated using a “forced swimming method” in a mouse model.
The forced swimming test in mouse models is an animal experimental method for confirming the antidepressant activity proposed by Porsalt (Arch. Int, pharmacydn. 229.327-336 (1977)).
A mouse placed into a pool indicates either an active state or a non-moving state. Decreases in the non-moving state of the mouse is used as an index to confirm the antidepressant action of a pharmaceutical composition.
The pool used for forced swimming was a glass cylindrical container 30 cm in height and 16 cm in inner diameter filled at a water depth of 20 cm at 25° c.
One hour before the test, 10 mL/kg of the above prepared methocarbamol aqueous solution was administered to the mouse only once (200 mg/kg in methocarbamol conversion).
The administration route was a forced oral administration using an installed mice oral administration sonde made by FUCHIGAMI with a syringe for injection made by TERUMO.
After one hour of forced administration, the mouse was placed in the forced swimming pool described above and left for 10 minutes.
The first three minutes after entering were considered a conditioning period, and the mouse's non-moving time in the remaining 7 minutes was measured.
“Non-motion” was defined by the mouse not moving the anterior limb and the posterior limb, and by a state in which the upper side of the neck is lifted from the water surface and floats.
The “non-moving time” was the sum of “non-motion” time.
The test was repeated 10 times for each mouse, and an average value was calculated.
An etizolam aqueous solution was used in place of a methocarbamol aqueous solution. The same test as described above (1) was performed, but with the administration amount converted to etizolam usage at 0.0333 mg/kg.
Distilled water not containing a pharmaceutical was used in place of the methocarbamol aqueous solution in the same manner as described above (1).
The average non-moving time values of the medium control group (n=10), the examples, and comparative examples (n=10) were compared with each other.

depression patients = experiment: Test for administration to depression patients; type: in vivo, human
Experimental: Test for administration to depression patients (embodiment 1) A 500 mg bolaxin tablet (manufactured by Ying-Yuan chemical pharmaceutical co. ltd.) and 500 mg-containing (methocarbamol content 76% mass) were prepared. A subject suffering from depression for two or more years was selected. A pharmaceutical composition was administered to the patient three times a day, and the administration was continued for one week. The dose on the initial day was 3.0 to 4.5 g/day (converted to methocarbamol). After observing the patient's state, it was increased to 6.0 g/day (converted to methocarbamol). The regular drug in addition to the tested pharmaceutical composition was continuously taken, but drinking was prohibited during the test. After one week, a potential depression improvement effect before and after administration was evaluated. The evaluation investigated a significant difference in two-term judgment of two related groups. The evaluation was judged based on a declaration of whether the subjects felt an improvement in thinking, desires, and fatigue.

[1] = N=5 depression patients, bolaxin tablets three times a day for one week, 3.0 to 4.5 g/day increased to 6.0 g/day as methocarbamol

SMILES	Immobile time average value (mouse)	non-moving time (mouse)	Effective (subjects declaring improvement in thinking, desires and fatigue) (depression patients; [1])	No effect (depression patients; [1])	depression treatment effect (depression patients; depression patients, one week of administration)	antidepressant effect compared with etizolam group (forced swimming) (mouse; methocarbamol 200 mg/kg oral vs etizolam 0.033 mg/kg oral)
CCc1cc2c(s1)-n1c(C)nnc1CN=C2c1ccccc1Cl [Reagent E-1, Etizolam]	107.3 s	107.3 s	–	–	–	–
COc1ccccc1OCC(O)COC(N)=O (centres unmarked) [Reagent M-1, Methocarbamol]	157.7 s	157.7 s	5 persons	0 persons	beneficial depression treatment effect	essentially the same effect as the etizolam administration group
